PubChem BioAssay (NCI)
Values joined by “and” are separate entries in the source; they are usually repeats but may differ in a detail not shown here. Identical values can stand only once.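 Tested at 5 concentrations; 48 h exposure; 96-well plates; endpoints linearly interpolated, else capped at highest concentration. GI50 marks 50% less growth. TGI is the concentration that stops growth completely.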

Legend:
Assay in all cases: inhibition of tumour cell growth, NCI panel, 48 h
[1] = test system: CAKI-1 renal
[2] = test system: CCRF-CEM leukemia
[3] = test system: DU-145 prostate
[4] = test system: EKVX NSCLC
[5] = test system: HOP-62 NSCLC
[6] = test system: HS 578T breast
[7] = test system: RXF 393 renal
[8] = test system: SNB-19 CNS
[9] = test system: T-47D breast
[10] = test system: UACC-257 melanoma

Row | Structure (SMILES) | GI50 [1] | TGI [1] [µM] | GI50 [2] | TGI [2] [µM] | GI50 [3] [µM] | TGI [3] [µM] | GI50 [4] | TGI [4] [µM] | GI50 [5] [µM] | TGI [5] [µM] | GI50 [6] [µM] | TGI [6] [µM] | GI50 [7] [µM] | TGI [7] [µM] | GI50 [8] [µM] | TGI [8] [µM] | GI50 [9] | TGI [9] [µM] | GI50 [10] | TGI [10] [µM]
1 | NC(Cc1c[nH]c2ccc(F)cc12)C(=O)O (centres undefined) | 1270 µM | > 2500 | 1090 µM | > 2500 | 1310 | > 2500 | 1000 µM | > 2500 | 480 | 2160 | 506 | 1590 | 887 | > 2500 | 1680 | > 2500 | 1730 µM | > 2500 | 475 µM | 1220
2 | CC(C)(C)NC(=O)[C@H]1CC[C@H]2[C@@H]3CC[C@H]4NC(=O)C=C[C@]4(C)[C@H]3CC[C@]12C | 77.9 µM and > 100 µM | > 100 | 84.2 µM and > 100 µM | > 100 | > 100 | > 100 | 70.1 µM and > 100 µM | > 100 | > 100 | > 100 | > 100 | > 100 | > 100 | > 100 | > 100 | > 100 | > 100 µM and 67.2 µM | > 100 | 48.3 µM and > 100 µM | > 100
3 | Cc1ccc(Cl)cc1NC(=O)c1cc2ccccc2cc1O | 0.219 µM | 0.921 | 0.733 µM | 2.84 | 0.479 | > 24.7 | 0.342 µM | 4.51 | 0.224 | 0.673 | 0.304 | 1.96 | 0.55 | 2.23 | 0.442 | > 40.1 | 1.14 µM | 5.06 | 0.277 µM | 0.909
4 | O=C(CCl)Nc1cc(Cl)c(Cl)cc1Cl |  | 4.88 |  | 5.99 |  | 7.06 |  | 4.67 |  | 3.89 |  | 8.56 |  | 4.58 |  | 4.43 |  | 5.59 |  | 3.24
5 | CCN(CC)CCC(CNc1ccnc2cc(Cl)ccc12)c1ccccc1 (centres undefined) | 3.52 µM | 18.5 | 4.02 µM | 36.5 | 32.9 | > 100 | 28.5 µM | > 100 | 12.1 | 48.9 | 11.5 | 43 | 2.3 | 5.65 | 16.2 | 74.1 | 2.85 µM | 8.08 | 1.86 µM | 3.36
6 | COC1=C(OC)C(=O)C(Sc2ccc3ccccc3c2)=CC1=O |  | 32.8 |  | 4.31 |  | 33.7 |  | 30.5 |  | 32.7 |  | 53.4 |  | 22.1 |  | 32.4 |  | 35.8 |  | 22.2
7 | CCOC(=O)c1c(NC(=O)c2ccccc2)sc2c3c(ccc12)OCN(C)C3 | 1.59 µM | 2.99 | 1.97 µM | 5.75 | 1.67 | 3.12 | 1.65 µM | 3.08 | 1.77 | 3.82 | 1.9 | 4.16 | 1.57 | 3.2 | 1.56 | 3.1 | 1.76 µM | 3.78 | 1.97 µM | 3.85
8 | Nc1nnnc2nc[nH]c12 | 0.221 µM |  | 0.72 µM | > 100 | 0.8 | > 100 | 0.7 µM | > 100 | 0.907 | > 58 | 3.51 | > 65.5 | 1.35 | > 100 | 6.17 | > 100 | 0.297 µM | 2.55 | 0.729 µM | 14
9 | O=C1c2cccnc2C(=O)c2c1c(C(=O)NCCn1ccnc1)c1ccccn21 | 15.1 µM | 34.5 | 6.12 µM | > 100 | 3.09 | 12.4 | 4.54 µM | 18.6 | 1.28 | 11.3 | 5.26 | 38.7 | 3.88 | 15.7 | 2.22 | 11.9 | 3.24 µM | 11.6 | 2.06 µM | 3.93
